{
  "source": "paper PMC7966678",
  "about": "“GMP-compliant fully automated radiosynthesis of [^18F]FEPPA for PET/MRI imaging of regional brain TSPO expression” (EJNMMI Research, 2021)",
  "key": {"[1]": {"design": "method as in PMID 29875332", "conditions": "cited from earlier work"}, "[2]": {"system": "TSPO", "design": "method as in PMID 18355686, PMID 24939192", "conditions": "higher affinity than [^11C]PK-11195; cited from earlier work"}, "[3]": {"target": "T1, TSPO (Mus musculus, UniProt P50637)", "T1 construct": "from tissue; host or cells: living C57BL6 mice: brain regions, heart, lung, liver, spleen, kidney, blood (in vivo PET/MR)", "assay": "In vivo dynamic PET/MR whole-body biodistribution of [^18F]FEPPA in control and LPS-injected mice", "design": "species or system C57BL/6 mice", "method": "(§1) The mice in the LPS group (6 mice for each dose) were intraperitoneally injected with a single dose of 0.625, 1.25, 2.5 or 5 mg/kg LPS (Escherichia coli, strain O111:B4; Calbiochem, San Diego, CA, USA) to induce systemic inflammation. The control group were intraperitoneally injected with 0.9% NaCl. In vivo or in vitro assessments were performed 24 h after administration of LPS.\nBefore PET/MR imaging acquisition, the mice were anesthetized by passive inhalation of a mixture of isoflurane and oxygen (5% isoflurane for induction and 2% for maintenance). A fiber-optic temperature probe was inserted into the rectum to monitor the core temperature of the mice, then each animal was gently positioned in the MR cradle and the MRI coil was secured around the head. A warm water blanket was positioned to maintain the core temperature of the animals, then the mice were positioned inside the scanner. The depth of anesthesia, pulse and respiration were monitored constantly during the imaging procedure; in the unlikely event that an animal regained consciousness, the scanning was immediately stopped and the animal was removed from the scanner, humanely euthanized and eliminated from the study.\n(§2) The animals (n = 6 per dose of LPS; n = 6 controls) were injected with [^18F]FEPPA (10.09 ± 1.38 MBq; […]) via the tail vein. Dynamic PET images were obtained using a 7 T PETMR Inline (Bruker, Rheinstetten, Germany) for 30 min with the energy window set to 350–650 keV. Images were acquired every 1 s for 10 images, 10 s for five images, 60 s for nine images, 300 s for two images and 600 s for 1 image; a total of 27 frames were collected.\n(§3) The PET images were reconstructed through three-dimensional ordered-subset expectation maximization (3D-OSEM). The regional radioactivity concentration (KBq/cc) of [^18F]FEPPA was estimated based on the mean pixel values within the volumes of interest (VOI) corresponding to MR images of various regions of the brain. Image data were decay-corrected to the injection time. The radioactivity concentration (KBq/cc) of the VOI was converted to the standard uptake value (SUV), and the mean and standard error of the mean (SEM) radiotracer accumulation values were calculated for various tissues. PET/MR data were analyzed using PMOD 4.0 software (PMOD Technologies Ltd., Zurich, Switzerland)."}, "[4]": {"target": "T1, TSPO", "assay": "In vivo PET/MR brain region-specific uptake and pharmacokinetics (SUV, VT by Logan graphical analysis, AUC)", "design": "species or system C57BL/6 mice", "conditions": "for Brain [^18F]FEPPA uptake vs LPS dose: 24 h after injection", "method": "as §1, §2\nT1 and T2 MRI were performed to determine the anatomical structure of the brain. The MRI sequences included 0.5-mm thickness coronal T2 Turbo RARE high-resolution images (TR = 3455 ms, TE = 36 ms, matrix = 256 × 256, average = 8, slice number = 30).\nas §3\nThe Logan graphical method for reversible uptake was used to assess whether [^18F]FEPPA PET/MRI [30] could be used to detect differences in the expression of TSPO. Cardiac blood was used as the reference tissue. The slope of the linear portion of the Logan plot represents the total distribution (VT). If metabolite-corrected plasma TACs are not available, a reference region TAC, Cp(t), can be used instead of the plasma TAC. Then, the slope of the linear portion of the plot can be calculated using (Eq. 1)1 ∫0tCTissueτdr/CTissuet=K∫0tCpτdr/CTissuet+V"}, "[5]": {"assay": "Stability of final product (radiochemical purity by analytical HPLC)", "format": "physicochemical", "conditions": "6 h after the end of synthesis; manual and automated synthesis", "method": "Radiochemical and chemical purity, stability and molar activity were assessed by analytical HPLC. The molar activity of the radiotracer was quantified by measuring the radioactivity injected and deriving the concentration of FEPPA in the sample by UV detection.\nThe identity of the labeled compound [^18F]FEPPA was confirmed by co-injection with a non-radioactive FEPPA standard. The concentration of FEPPA in the radioactive sample was obtained from the UV-peak area ratio for the radioactive product and the standard solution. Analytical HPLC was performed on a Nova-pak C18 column (300 × 3.9 mm, 4 μm) in 50 mM (NH4)H2PO4:CH3CN (1:1) at 1 mL/min using a Waters Corporation 2695 pump with a multi-wavelength 2489 UV Detector (Waters Corporation) in series with a Bioscan FC-4000 dual BGO coincidence detector (Bioscan, Inc., Washington, DC, USA). A delay time of 12 s was observed between the two detectors."}},
  "data": [
    {"smiles": "CC(=O)N(Cc1ccccc1OCC[18F])c1cnccc1Oc1ccccc1", "note": "[[^18F]FEPPA, [^18F]-N-(2-(2-fluoroethoxy)benzyl)-N-(4-phenoxypyridin-3-yl) acetamide]", "values": [
      {"measurement": "Parent fraction of unmetabolized [^18F]FEPPA in the brain (intact form)", "setting": "[1]; 30 min after injection", "value": "approximately 95%"},
      {"measurement": "Metabolite in plasma", "setting": "[1]; 30 min imaging time-window", "value": 60, "unit": "%"},
      {"measurement": "Affinity relative to [^11C]PK-11195", "setting": "[2]", "value": 18, "unit": "fold"},
      {"measurement": "Increase of [^18F]FEPPA in heart, LPS-induced group vs control", "setting": "[3]; LPS 5 mg/kg, 24 h", "value": "~ 3 folds"},
      {"measurement": "Increase of [^18F]FEPPA in lung, LPS-induced group vs control", "setting": "[3]; LPS 5 mg/kg, 24 h", "value": "~ 3 folds"},
      {"measurement": "Accumulated radioactivity (SUV), Blood", "setting": "[3]; LPS (5 mg/kg i.p., 24 h) mice", "value": "1.29 ± 0.128", "unit": "SUV"},
      {"measurement": "Accumulated radioactivity (SUV), Heart muscle", "setting": "[3]; LPS (5 mg/kg i.p., 24 h) mice", "value": "3.60 ± 0.722", "unit": "SUV"},
      {"measurement": "Accumulated radioactivity (SUV), Kidney", "setting": "[3]; LPS (5 mg/kg i.p., 24 h) mice", "value": "5.86 ± 0.504", "unit": "SUV"},
      {"measurement": "Accumulated radioactivity (SUV), Liver", "setting": "[3]; LPS (5 mg/kg i.p., 24 h) mice", "value": "1.60 ± 0.097", "unit": "SUV"},
      {"measurement": "Accumulated radioactivity (SUV), Spleen", "setting": "[3]; LPS (5 mg/kg i.p., 24 h) mice", "value": "0.96 ± 0.443", "unit": "SUV"},
      {"measurement": "Accumulated radioactivity (SUV), Whole brain", "setting": "[3]; LPS (5 mg/kg i.p., 24 h) mice", "value": "0.76 ± 0.014", "unit": "SUV"},
      {"measurement": "Time of peak radioactivity in heart muscle", "setting": "[3]; after injection", "value": "≤ 3", "unit": "min"},
      {"measurement": "Time to steady state in heart muscle and lungs", "setting": "[3]; after injection of [^18F]FEPPA", "value": 10, "unit": "min"},
      {"measurement": "Blood clearance kinetics", "setting": "[3]; control group, after i.v. injection", "value": "biexponential"},
      {"measurement": "Accumulated radioactivity (SUV), Heart muscle", "setting": "[3]; control mice", "value": "1.24 ± 0.06", "unit": "SUV"},
      {"measurement": "Accumulated radioactivity (SUV), Kidney", "setting": "[3]; control mice", "value": "4.80 ± 0.57", "unit": "SUV"},
      {"measurement": "Accumulated radioactivity (SUV), Liver", "setting": "[3]; control mice", "value": "1.48 ± 0.36", "unit": "SUV"},
      {"measurement": "Accumulated radioactivity (SUV), Lung", "setting": "[3]; control mice", "value": "1.38 ± 0.08", "unit": "SUV"},
      {"measurement": "Accumulated radioactivity (SUV), Spleen", "setting": "[3]; control mice", "value": "1.16 ± 0.32", "unit": "SUV"},
      {"measurement": "Accumulated radioactivity (SUV), Whole brain", "setting": "[3]; control mice", "value": "0.48 ± 0.05", "unit": "SUV"},
      {"measurement": "Accumulated radioactivity (SUV), Blood", "setting": "[3]; control mice, 30 min post-injection i.v.", "value": "1.29 ± 0.03", "unit": "SUV"},
      {"measurement": "Time of peak accumulation in the lungs", "setting": "[3]; post-injection", "value": "1 to 2", "unit": "min"},
      {"measurement": "Brain [^18F]FEPPA uptake vs LPS dose", "setting": "[4]; 5 mg/kg LPS", "value": "significantly higher uptake"},
      {"measurement": "AUC (SUV·min, 0–30 min) ratio in brain, LPS vs control", "setting": "[4]; LPS 5 mg/kg, 24 h", "value": "1.58 ± 0.09", "unit": "fold"},
      {"measurement": "VT (Logan graphical analysis) in brain, LPS vs control", "setting": "[4]; LPS 5 mg/kg, 24 h, average of brain regions, cardiac blood as reference", "value": "1.25 ± 0.12", "unit": "fold"},
      {"measurement": "Average SUV ratio for all brain regions, LPS vs control", "setting": "[4]; LPS 5 mg/kg, 24 h, brain", "value": "1.61 ± 0.1", "unit": "fold"},
      {"measurement": "Brain [^18F]FEPPA uptake vs LPS dose", "setting": "[4]; LPS dose ≦ 2.5 mg/kg", "value": "no significant difference"},
      {"measurement": "Time of peak radioactivity in brain regions", "setting": "[4]; control animals, followed by rapid washout", "value": "≤ 3", "unit": "min"},
      {"measurement": "Radiochemical purity (stability of final product)", "setting": "[5]", "value": "more than 99%"}
    ]}
  ]
}
